Test results from patent publication US20230391768A2, “IMIDAZOPYRIDINE DERIVATIVES AND AZA-IMIDAZOPYRIDINE DERIVATIVES AS JANUS KINASE 2 INHIBITORS AND USES THEREOF” (Dana-Farber Cancer Institute, Inc., priority 2018, published 2023).

How the values were obtained:
Assay in all cases: KINOMEscan
Format in all cases: binding
Details in all cases: read-out: percent of control
[1] = target: FGR (Homo sapiens (Human), UniProt P09769)
Method: (§1) In vitro profiling of Compound I-2 (1 μM) was performed using the DiscoveRx KINOMEscan® platform.

[2] = target: S6K1 (Homo sapiens (Human), UniProt P23443)
Method: as §1

[3] = target: PRKCI (Homo sapiens (Human), UniProt P41743)
Method: as §1

[4] = target: RIOK2 (Homo sapiens (Human), UniProt Q9BVS4)
Method: as §1

[5] = target: NDR1 (Homo sapiens (Human), UniProt Q15208)
Method: as §1

[6] = target: ABL1(F317L)-nonphosphorylated (Homo sapiens (Human), UniProt P00519, F317L)
Method: as §1

[7] = target: CSNK1G1 (Homo sapiens (Human), UniProt Q9HCP0)
Method: as §1

[8] = target: MTOR (Homo sapiens (Human), UniProt P42345)
Method: as §1

[9] = target: SRPK3 (Homo sapiens (Human), UniProt Q9UPE1)
Method: as §1

[10] = target: PKN2 (Homo sapiens (Human), UniProt Q16513)
Method: as §1

[11] = target: ULK (Homo sapiens (Human), UniProt O75385)
Method: as §1

[12] = target: ABL1(H396P)-phosphorylated (Homo sapiens (Human), UniProt P00519, H396P)
Method: as §1

[13] = target: GSK3B (Homo sapiens (Human), UniProt P49841)
Method: as §1

[14] = target: NIK (Homo sapiens (Human), UniProt Q99558)
Method: as §1

[15] = target: YANK3 (Homo sapiens (Human), UniProt Q86UX6)
Method: as §1

[16] = target: DAPK2 (Homo sapiens (Human), UniProt Q9UIK4)
Method: as §1

[17] = target: DLK (Homo sapiens (Human), UniProt Q12852)
Method: as §1

[18] = target: CAMK2B (Homo sapiens (Human), UniProt Q13554)
Method: as §1

[19] = target: SIK2 (Homo sapiens (Human), UniProt Q9H0K1)
Method: as §1

[20] = target: MARK1 (Homo sapiens (Human), UniProt Q9P0L2)
Method: as §1

[21] = target: BRSK2 (Homo sapiens (Human), UniProt Q8IWQ3)
Method: as §1

[22] = target: ERBB4 (Homo sapiens (Human), UniProt Q15303)
Method: as §1

[23] = target: SRPK2 (Homo sapiens (Human), UniProt P78362)
Method: as §1

[24] = target: CSK (Homo sapiens (Human), UniProt P41240)
Method: as §1

[25] = target: TYK2(JH1domain-catalytic) (Homo sapiens (Human), UniProt P29597)
Method: as §1

[26] = target: MET (Homo sapiens (Human), UniProt P08581)
Method: as §1

[27] = target: HPK1 (Homo sapiens (Human), UniProt Q92918)
Method: as §1

[28] = target: IKK-alpha (Homo sapiens (Human), UniProt O15111)
Method: as §1

[29] = target: MARK2 (Homo sapiens (Human), UniProt Q7KZI7)
Method: as §1

[30] = target: ZAP70 (Homo sapiens (Human), UniProt P43403)
Method: as §1

[31] = target: TNK1 (Homo sapiens (Human), UniProt Q13470)
Method: as §1

[32] = target: ABL1(Y253F)-phosphorylated (Homo sapiens (Human), UniProt P00519, Y253F)
Method: as §1

[33] = target: ACVR1B (Homo sapiens (Human), UniProt P36896)
Method: as §1

[34] = target: ACVR2B (Homo sapiens (Human), UniProt Q13705)
Method: as §1

[35] = target: PRKD2 (Homo sapiens (Human), UniProt Q9BZL6)
Method: as §1

[36] = target: KIT(D816H) (Homo sapiens (Human), UniProt P10721, D816H)
Method: as §1

[37] = target: RSK2 (Kin.Dom.1-N-terminal) (Homo sapiens (Human), UniProt P51812)
Method: as §1

[38] = target: NIM1 (Homo sapiens (Human), UniProt Q8IY84)
Method: as §1

[39] = target: IKK-epsilon (Homo sapiens (Human), UniProt Q14164)
Method: as §1

Chain of IKK-epsilon (Q14164 whole entry): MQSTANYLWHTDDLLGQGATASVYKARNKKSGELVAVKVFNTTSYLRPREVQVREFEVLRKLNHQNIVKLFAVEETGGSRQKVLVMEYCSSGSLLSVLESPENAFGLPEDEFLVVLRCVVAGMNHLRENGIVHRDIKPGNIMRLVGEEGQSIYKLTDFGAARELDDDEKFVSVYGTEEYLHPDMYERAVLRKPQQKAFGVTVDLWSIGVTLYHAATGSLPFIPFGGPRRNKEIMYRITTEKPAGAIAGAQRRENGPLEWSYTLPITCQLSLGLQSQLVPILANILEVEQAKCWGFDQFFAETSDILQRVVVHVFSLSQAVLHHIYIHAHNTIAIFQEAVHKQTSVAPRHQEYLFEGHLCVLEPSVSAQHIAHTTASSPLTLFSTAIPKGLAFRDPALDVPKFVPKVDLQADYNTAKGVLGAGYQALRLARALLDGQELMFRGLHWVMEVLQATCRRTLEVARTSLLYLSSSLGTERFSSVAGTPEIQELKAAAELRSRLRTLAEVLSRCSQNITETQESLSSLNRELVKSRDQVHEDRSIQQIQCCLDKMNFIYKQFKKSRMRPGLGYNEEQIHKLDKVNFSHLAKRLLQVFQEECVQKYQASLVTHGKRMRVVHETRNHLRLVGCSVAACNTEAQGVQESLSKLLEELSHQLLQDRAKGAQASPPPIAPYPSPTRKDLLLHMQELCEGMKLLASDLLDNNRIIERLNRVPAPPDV
Chain of RIOK2 (Q9BVS4 whole entry): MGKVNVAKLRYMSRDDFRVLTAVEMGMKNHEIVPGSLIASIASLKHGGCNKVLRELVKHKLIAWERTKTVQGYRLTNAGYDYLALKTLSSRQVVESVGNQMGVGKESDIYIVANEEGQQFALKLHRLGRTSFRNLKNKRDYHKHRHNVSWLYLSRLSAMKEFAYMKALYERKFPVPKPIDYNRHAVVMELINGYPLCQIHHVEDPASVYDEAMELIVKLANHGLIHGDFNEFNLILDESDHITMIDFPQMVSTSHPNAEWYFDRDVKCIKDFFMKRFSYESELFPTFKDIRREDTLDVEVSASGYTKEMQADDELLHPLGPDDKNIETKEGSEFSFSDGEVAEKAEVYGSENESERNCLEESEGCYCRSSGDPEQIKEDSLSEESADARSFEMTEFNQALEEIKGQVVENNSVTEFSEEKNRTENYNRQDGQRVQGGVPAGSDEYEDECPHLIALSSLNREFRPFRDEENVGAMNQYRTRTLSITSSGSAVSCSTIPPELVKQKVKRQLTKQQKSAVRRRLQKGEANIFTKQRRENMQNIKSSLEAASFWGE
Chain of PRKD2 (Q9BZL6 whole entry): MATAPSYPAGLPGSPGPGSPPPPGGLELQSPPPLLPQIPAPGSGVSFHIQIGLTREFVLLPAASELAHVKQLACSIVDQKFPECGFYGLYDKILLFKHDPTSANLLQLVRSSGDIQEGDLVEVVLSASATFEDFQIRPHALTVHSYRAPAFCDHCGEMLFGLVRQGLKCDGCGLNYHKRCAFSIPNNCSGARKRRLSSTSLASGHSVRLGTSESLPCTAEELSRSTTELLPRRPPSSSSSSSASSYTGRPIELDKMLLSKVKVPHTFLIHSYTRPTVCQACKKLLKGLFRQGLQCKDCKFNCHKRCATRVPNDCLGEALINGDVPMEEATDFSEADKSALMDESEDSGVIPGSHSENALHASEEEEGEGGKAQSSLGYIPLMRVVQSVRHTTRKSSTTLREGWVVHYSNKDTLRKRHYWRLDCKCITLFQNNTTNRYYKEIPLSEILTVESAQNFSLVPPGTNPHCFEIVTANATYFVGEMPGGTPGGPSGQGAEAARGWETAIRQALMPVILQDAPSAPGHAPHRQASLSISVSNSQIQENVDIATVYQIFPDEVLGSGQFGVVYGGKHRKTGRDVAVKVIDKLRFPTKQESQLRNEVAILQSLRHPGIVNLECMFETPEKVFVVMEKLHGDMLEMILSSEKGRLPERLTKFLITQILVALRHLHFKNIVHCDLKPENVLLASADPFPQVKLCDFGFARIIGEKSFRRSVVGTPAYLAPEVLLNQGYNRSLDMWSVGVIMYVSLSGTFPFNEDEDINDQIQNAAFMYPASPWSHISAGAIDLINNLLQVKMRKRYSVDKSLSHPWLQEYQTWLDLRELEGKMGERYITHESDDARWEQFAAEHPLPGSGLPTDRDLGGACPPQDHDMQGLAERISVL
Chain of CSNK1G1 (Q9HCP0 whole entry): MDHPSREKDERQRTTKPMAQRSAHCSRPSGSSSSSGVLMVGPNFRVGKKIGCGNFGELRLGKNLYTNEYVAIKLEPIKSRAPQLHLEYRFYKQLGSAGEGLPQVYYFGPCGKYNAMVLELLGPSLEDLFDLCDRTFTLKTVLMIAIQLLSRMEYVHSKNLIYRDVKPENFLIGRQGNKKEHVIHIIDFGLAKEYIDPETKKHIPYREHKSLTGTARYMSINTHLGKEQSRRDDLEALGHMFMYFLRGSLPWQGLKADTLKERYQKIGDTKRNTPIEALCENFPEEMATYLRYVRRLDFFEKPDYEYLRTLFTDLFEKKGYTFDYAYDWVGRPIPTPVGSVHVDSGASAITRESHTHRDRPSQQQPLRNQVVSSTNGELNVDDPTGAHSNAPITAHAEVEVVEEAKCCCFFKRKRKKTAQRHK
Chain of SRPK3 (Q9UPE1 whole entry): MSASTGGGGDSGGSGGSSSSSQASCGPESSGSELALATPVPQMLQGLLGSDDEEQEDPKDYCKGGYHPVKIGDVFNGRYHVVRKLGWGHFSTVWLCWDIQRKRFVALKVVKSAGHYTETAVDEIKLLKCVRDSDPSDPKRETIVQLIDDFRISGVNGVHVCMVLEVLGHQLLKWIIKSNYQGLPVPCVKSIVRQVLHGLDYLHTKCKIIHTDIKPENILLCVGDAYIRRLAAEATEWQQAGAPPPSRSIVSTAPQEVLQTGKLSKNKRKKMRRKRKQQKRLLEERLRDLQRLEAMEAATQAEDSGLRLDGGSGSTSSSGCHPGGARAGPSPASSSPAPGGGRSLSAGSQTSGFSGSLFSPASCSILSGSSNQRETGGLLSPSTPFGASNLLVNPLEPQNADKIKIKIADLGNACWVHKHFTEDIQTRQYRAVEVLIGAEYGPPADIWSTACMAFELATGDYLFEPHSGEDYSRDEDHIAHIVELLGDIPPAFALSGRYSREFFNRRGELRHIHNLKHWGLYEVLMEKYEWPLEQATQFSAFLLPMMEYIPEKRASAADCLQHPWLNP
Chain of IKK-alpha (O15111 whole entry): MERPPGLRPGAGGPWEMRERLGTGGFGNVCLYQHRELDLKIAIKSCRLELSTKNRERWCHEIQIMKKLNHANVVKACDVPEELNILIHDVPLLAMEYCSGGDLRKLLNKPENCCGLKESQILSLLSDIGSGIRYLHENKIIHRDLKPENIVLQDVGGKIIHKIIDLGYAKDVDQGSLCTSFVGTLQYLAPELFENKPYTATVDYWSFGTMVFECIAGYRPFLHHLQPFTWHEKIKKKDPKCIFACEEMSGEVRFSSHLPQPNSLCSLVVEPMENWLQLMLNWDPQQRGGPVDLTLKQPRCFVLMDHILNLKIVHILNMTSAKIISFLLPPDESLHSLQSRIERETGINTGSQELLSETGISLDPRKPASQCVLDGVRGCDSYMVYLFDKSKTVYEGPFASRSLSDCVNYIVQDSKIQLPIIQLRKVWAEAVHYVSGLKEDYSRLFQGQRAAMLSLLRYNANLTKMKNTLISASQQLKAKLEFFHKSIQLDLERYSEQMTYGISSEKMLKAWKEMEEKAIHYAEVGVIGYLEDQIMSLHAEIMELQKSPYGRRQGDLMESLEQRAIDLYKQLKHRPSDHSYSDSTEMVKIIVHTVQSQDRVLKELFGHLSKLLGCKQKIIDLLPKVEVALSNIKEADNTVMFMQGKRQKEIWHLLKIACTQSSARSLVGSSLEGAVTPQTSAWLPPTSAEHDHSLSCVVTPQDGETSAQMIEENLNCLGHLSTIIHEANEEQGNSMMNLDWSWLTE
Chain of HPK1 (Q92918 whole entry): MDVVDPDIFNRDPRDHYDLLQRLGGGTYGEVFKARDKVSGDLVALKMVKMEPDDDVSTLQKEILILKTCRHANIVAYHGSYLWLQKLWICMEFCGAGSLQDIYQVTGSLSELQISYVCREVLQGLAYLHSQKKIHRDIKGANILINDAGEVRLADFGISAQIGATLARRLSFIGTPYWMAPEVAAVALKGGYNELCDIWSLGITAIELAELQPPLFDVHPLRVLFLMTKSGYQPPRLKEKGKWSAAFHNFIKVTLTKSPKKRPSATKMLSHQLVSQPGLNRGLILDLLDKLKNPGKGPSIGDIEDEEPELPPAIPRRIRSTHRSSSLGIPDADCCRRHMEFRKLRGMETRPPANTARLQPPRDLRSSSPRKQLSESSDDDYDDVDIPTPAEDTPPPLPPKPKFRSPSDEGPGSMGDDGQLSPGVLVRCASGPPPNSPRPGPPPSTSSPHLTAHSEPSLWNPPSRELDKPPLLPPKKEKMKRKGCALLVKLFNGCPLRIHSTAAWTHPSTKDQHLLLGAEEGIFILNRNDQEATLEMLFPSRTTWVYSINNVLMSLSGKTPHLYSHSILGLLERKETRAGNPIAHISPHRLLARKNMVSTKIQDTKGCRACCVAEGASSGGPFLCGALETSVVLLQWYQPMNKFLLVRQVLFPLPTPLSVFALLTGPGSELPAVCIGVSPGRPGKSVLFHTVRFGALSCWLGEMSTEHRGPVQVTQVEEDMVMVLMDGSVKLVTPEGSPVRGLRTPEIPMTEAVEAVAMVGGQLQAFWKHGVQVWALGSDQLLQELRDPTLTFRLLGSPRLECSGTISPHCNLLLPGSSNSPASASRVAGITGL
Chain of TYK2(JH1domain-catalytic) (P29597 897-1176): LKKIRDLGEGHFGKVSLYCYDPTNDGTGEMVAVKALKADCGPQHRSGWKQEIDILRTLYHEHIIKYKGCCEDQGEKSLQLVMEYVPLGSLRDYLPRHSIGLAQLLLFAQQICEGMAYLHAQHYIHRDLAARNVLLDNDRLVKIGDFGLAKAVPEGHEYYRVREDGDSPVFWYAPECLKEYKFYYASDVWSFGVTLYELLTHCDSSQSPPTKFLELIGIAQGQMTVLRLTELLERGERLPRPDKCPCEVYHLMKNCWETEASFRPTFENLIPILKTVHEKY

In the case of `CCN1CCN(Cc2cc(NC(=O)c3ccc(C)c(-c4ccc5nc(NC(=O)C6CC6)cn5n4)c3)cc(C(F)(F)F)c2)CC1` [Compound I-2, 3-(2-(cyclopropanecarboxamido)imidazo[1,2-b]pyridazin-6-yl)-N-(3-((4-ethylpiperazin-1-yl)methyl)-5-(trifluoromethyl)phenyl)-4-methylbenzamide], the remaining binding at 1 µM [1] is reported as 0.15%, the remaining binding at 1 µM [2] is reported as 52% and the remaining binding at 1 µM [3] is reported as 66%. For the same compound, the remaining binding at 1 µM [4] was 100%, the remaining binding at 1 µM [5] was 100% and the remaining binding at 1 µM [6] was 0%. For the same compound, the remaining binding at 1 µM [7] was 100%, the remaining binding at 1 µM [8] was 78% and the remaining binding at 1 µM [9] was 92%. For the same compound, the remaining binding at 1 µM [10] was 77%, the remaining binding at 1 µM [11] was 89% and the remaining binding at 1 µM [12] was 0.3%. It also gave a remaining binding at 1 µM [13] of 93%, a remaining binding at 1 µM [14] of 100% and a remaining binding at 1 µM [15] of 91%. For the same compound, the remaining binding at 1 µM [16] was 94%, the remaining binding at 1 µM [17] was 15% and the remaining binding at 1 µM [18] was 100%. It also gave a remaining binding at 1 µM [19] of 100%, a remaining binding at 1 µM [20] of 91% and a remaining binding at 1 µM [21] of 93%. For the same compound, the remaining binding at 1 µM [22] was 71%, the remaining binding at 1 µM [23] was 73% and the remaining binding at 1 µM [24] was 39%. It also gave a remaining binding at 1 µM [25] of 54%, a remaining binding at 1 µM [26] of 9.7% and a remaining binding at 1 µM [27] of 0.1%. For the same compound, the remaining binding at 1 µM [28] was 53%, the remaining binding at 1 µM [29] was 96% and the remaining binding at 1 µM [30] was 66%. For the same compound, the remaining binding at 1 µM [31] was 63%, the remaining binding at 1 µM [32] was 0% and the remaining binding at 1 µM [33] was 99%. For the same compound, the remaining binding at 1 µM [34] was 96%, the remaining binding at 1 µM [35] was 97% and the remaining binding at 1 µM [36] was 38%. It also gave a remaining binding at 1 µM [37] of 88%, a remaining binding at 1 µM [38] of 99% and a remaining binding at 1 µM [39] of 80%.
In the case of `CCN1CCN(Cc2cc(NC(=O)c3ccc(C)c(-c4ccc5nc(NC(=O)C6CC6)cn5c4)c3)cc(C(F)(F)F)c2)CC1` [Compound I-6, 3-(2-(cyclopropanecarboxamido)imidazo[1,2-a]pyridin-6-yl)-N-(3-((4-ethylpiperazin-1-yl)methyl)-5-(trifluoromethyl)phenyl)-4-methylbenzamide], the remaining binding at 1 µM [1] is reported as 0%, the remaining binding at 1 µM [2] is reported as 49% and the remaining binding at 1 µM [3] is reported as 100%. For the same compound, the remaining binding at 1 µM [4] was 94%, the remaining binding at 1 µM [5] was 85% and the remaining binding at 1 µM [6] was 0%. The remaining binding at 1 µM [7] was 96%, the remaining binding at 1 µM [8] was 91% and the remaining binding at 1 µM [9] was 83%. For the same compound, the remaining binding at 1 µM [10] was 100%, the remaining binding at 1 µM [11] was 100% and the remaining binding at 1 µM [12] was 0.25%. It also gave a remaining binding at 1 µM [13] of 100%, a remaining binding at 1 µM [14] of 72% and a remaining binding at 1 µM [15] of 100%. The remaining binding at 1 µM [16] was 100%, the remaining binding at 1 µM [17] was 26% and the remaining binding at 1 µM [18] was 100%. It also gave a remaining binding at 1 µM [19] of 100%, a remaining binding at 1 µM [20] of 77% and a remaining binding at 1 µM [21] of 71%. It also gave a remaining binding at 1 µM [22] of 53%, a remaining binding at 1 µM [23] of 100% and a remaining binding at 1 µM [24] of 21%. The remaining binding at 1 µM [25] was 41%, the remaining binding at 1 µM [26] was 14% and the remaining binding at 1 µM [27] was 0.75%. The remaining binding at 1 µM [28] was 63%, the remaining binding at 1 µM [29] was 78% and the remaining binding at 1 µM [30] was 30%. The remaining binding at 1 µM [31] was 31%, the remaining binding at 1 µM [32] was 0.1% and the remaining binding at 1 µM [33] was 94%. It also gave a remaining binding at 1 µM [34] of 100%, a remaining binding at 1 µM [35] of 100% and a remaining binding at 1 µM [36] of 29%. It also gave a remaining binding at 1 µM [37] of 78%, a remaining binding at 1 µM [38] of 88% and a remaining binding at 1 µM [39] of 87%.
